Test results taken from patent US8258114B2, “Modulation of glucose-6-phosphatase translocase expression” (Isis Pharmaceuticals, Inc., priority 2004, dated 2012).
Oligonucleotides are written 5' to 3', each unit as a sugar letter and its base; * is a phosphorothioate linkage, no mark a phosphodiester; rarer units and linkages stand in square brackets, end groups in braces. Plain capitals give the bases only. e = 2'-O-(2-methoxyethyl) (MOE); [5mC] = 5-methylcytosine; d = 2'-deoxy (DNA)

Tested on: human glucose-6-phosphatase translocase mRNA
Assay: Antisense inhibition of human glucose-6-phosphatase translocase mRNA in HepG2 cells (Table 11)
Format: cell-based
Design: concentration or dose not given beside the values
Conditions: LIPOFECTIN, mRNA by real-time PCR
Method: The human hepatoblastoma cell line HepG2 was obtained from the American Type Culture Collection (Manassas, Va.). HepG2 cells were routinely cultured in Eagle's MEM supplemented with 10% fetal bovine serum, 1 mM non-essential amino acids, and 1 mM sodium pyruvate (Invitrogen Life Technologies, Carlsbad, Calif.). Cells were routinely passaged by trypsinization and dilution when they reached approximately 90% confluence. Multiwell culture plates are prepared for cell culture by coating with a 1:100 dilution of type 1 rat tail collagen (BD Biosciences, Bedford, Mass.) in phosphate-buffered saline. The collagen-containing plates were incubated at 37° C. for approximately 1 hour, after which the collagen was removed and the wells were washed twice with phosphate-buffered saline. Cells were seeded into 96-well plates (Falcon-Primaria #353872, BD Biosciences, Bedford, Mass.) at a density of approximately 8,000 cells/well for use in oligomeric compound transfection experiments.
When cells reached 65-75% confluency, they were treated with oligonucleotide. Oligonucleotide was mixed with LIPOFECTIN™ Invitrogen Life Technologies, Carlsbad, Calif.) in Opti-MEM™-1 reduced serum medium (Invitrogen Life Technologies, Carlsbad, Calif.) to achieve the desired concentration of oligonucleotide and a LIPOFECTIN™ concentration of 2.5 or 3 μg/mL per 100 nM oligonucleotide. This transfection mixture was incubated at room temperature for approximately 0.5 hours. For cells grown in 96-well plates, wells were washed once with 100 μL OPTI-MEM™-1 and then treated with 130 μL of the transfection mixture. Cells grown in 24-well plates or other standard tissue culture plates are treated similarly, using appropriate volumes of medium and oligonucleotide. Cells are treated and data are obtained in duplicate or triplicate. After approximately 4-7 hours of treatment at 37° C., the medium containing the transfection mixture was replaced with fresh culture medium. Cells were harvested 16-24 hours after oligonucleotide treatment.
Quantitation of glucose 6-phosphatase translocase mRNA levels was accomplished by real-time quantitative PCR using the ABI PRISM™ 7600, 7700, or 7900 Sequence Detection System (PE-Applied Biosystems, Foster City, Calif.) according to manufacturer's instructions.
Prior to quantitative PCR analysis, primer-probe sets specific to the target gene being measured were evaluated for their ability to be “multiplexed” with a GAPDH amplification reaction. After isolation the RNA is subjected to sequential reverse transcriptase (RT) reaction and real-time PCR, both of which are performed in the same well. RT and PCR reagents were obtained from Invitrogen Life Technologies (Carlsbad, Calif.). […] The RT reaction was carried out by incubation for 30 minutes at 48° C. Following a 10 minute incubation at 95° C. to activate the PLATINUM® Taq, 40 cycles of a two-step PCR protocol were carried out: 95° C. for 15 seconds (denaturation) followed by 60° C. for 1.5 minutes (annealing/extension).
Gene target quantities obtained by RT, real-time PCR were normalized using either the expression level of GAPDH, a gene whose expression is constant, or by quantifying total RNA using RiboGreen™ (Molecular Probes, Inc. Eugene, Oreg.). GAPDH expression was quantified by RT, real-time PCR, by being run simultaneously with the target, multiplexing, or separately. Total RNA was quantified using RiboGreen™ RNA quantification reagent (Molecular Probes, Inc. Eugene, Oreg.).
A series of oligomeric compounds was designed to target different regions of human glucose-6-phosphatase translocase, using published sequences cited in Table 1. All compounds in Table 4 are chimeric oligonucleotides (“gapmers”) 20 nucleotides in length, composed of a central “gap” region consisting of 10 2′-deoxynucleotides, which is flanked on both sides (5′ and 3′) by five-nucleotide “wings”. The wings are composed of 2′-O-(2-methoxyethyl) nucleotides, also known as 2′-MOE nucleotides. […]

Going from “GAAGGAGACAACCACACACA (eG*eA*eA*eG*eG*dA*dG*dA*d[5mC]*dA*dA*d[5mC]*d[5mC]*dA*d[5mC]*eA*e[5mC]*eA*e[5mC]*eA; antisense) [ISIS 359520]” to “GAGAAACCAAATACAGCTCC (eG*eA*eG*eA*eA*dA*d[5mC]*d[5mC]*dA*dA*dA*dT*dA*d[5mC]*dA*eG*e[5mC]*eT*e[5mC]*e[5mC]; antisense) [ISIS 359540]”, the “% Inhib” value rises from 42% to 92%.

Compared with “TTACCCGGAAGAGGTACATG (eT*eT*eA*e[5mC]*e[5mC]*d[5mC]*dG*dG*dA*dA*dG*dA*dG*dG*dT*eA*e[5mC]*eA*eT*eG; antisense) [ISIS 359531]”, “AGCAGGTTCATTGTGGATGA (eA*eG*e[5mC]*eA*eG*dG*dT*dT*d[5mC]*dA*dT*dT*dG*dT*dG*eG*eA*eT*eG*eA; antisense) [ISIS 359522]” is higher in “% Inhib” value: 62% for the first, 91% for the second.

Going from “CCCTCCAGCCAGGTTCATGC (e[5mC]*e[5mC]*e[5mC]*eT*e[5mC]*d[5mC]*dA*dG*d[5mC]*d[5mC]*dA*dG*dG*dT*dT*e[5mC]*eA*eT*eG*e[5mC]; antisense) [ISIS 359515]” to “ACTCGGCCCATCTTGGTGCG (eA*e[5mC]*eT*e[5mC]*eG*dG*d[5mC]*d[5mC]*d[5mC]*dA*dT*d[5mC]*dT*dT*dG*eG*eT*eG*e[5mC]*eG; antisense) [ISIS 359548]”, the “% Inhib” value rises from 62% to 96%.

Compared with “ACAACCACACACAGTGCCCC (eA*e[5mC]*eA*eA*e[5mC]*d[5mC]*dA*d[5mC]*dA*d[5mC]*dA*d[5mC]*dA*dG*dT*eG*e[5mC]*e[5mC]*e[5mC]*e[5mC]; antisense) [ISIS 359519]”, “AGCCAGGTTCATGCTGGTTG (eA*eG*e[5mC]*e[5mC]*eA*dG*dG*dT*dT*d[5mC]*dA*dT*dG*d[5mC]*dT*eG*eG*eT*eT*eG; antisense) [ISIS 359513]” is higher in “% Inhib” value: 53% for the first, 62% for the second.

First: CAAATACAGCTCCCAATACC (e[5mC]*eA*eA*eA*eT*dA*d[5mC]*dA*dG*d[5mC]*dT*d[5mC]*d[5mC]*d[5mC]*dA*eA*eT*eA*e[5mC]*e[5mC]; antisense) [ISIS 359538]
Second: ATGGCCCACCAAGTGCCAAA (eA*eT*eG*eG*e[5mC]*d[5mC]*d[5mC]*dA*d[5mC]*d[5mC]*dA*dA*dG*dT*dG*e[5mC]*e[5mC]*eA*eA*eA; antisense) [ISIS 359510]
The “% Inhib” value of the first is lower: 29% for the first, 38% for the second.

Going from “TCCTTTCTCCTGGATAAGGA (eT*e[5mC]*e[5mC]*eT*eT*dT*d[5mC]*dT*d[5mC]*d[5mC]*dT*dG*dG*dA*dT*eA*eA*eG*eG*eA; antisense) [ISIS 359530]” to “CCATCTTGGTGCGGATGTTT (e[5mC]*e[5mC]*eA*eT*e[5mC]*dT*dT*dG*dG*dT*dG*d[5mC]*dG*dG*dA*eT*eG*eT*eT*eT; antisense) [ISIS 359547]”, the “% Inhib” value rises from 59% to 91%.

“CATGCTGGTTGACAGGATGG (e[5mC]*eA*eT*eG*e[5mC]*dT*dG*dG*dT*dT*dG*dA*d[5mC]*dA*dG*eG*eA*eT*eG*eG; antisense) [ISIS 359512]” and “ACATCAGCAGGTTCATTGTG (eA*e[5mC]*eA*eT*e[5mC]*dA*dG*d[5mC]*dA*dG*dG*dT*dT*d[5mC]*dA*eT*eT*eG*eT*eG; antisense) [ISIS 359523]” are the same in “% Inhib” value: 43% for the first, 43% for the second.

Going from “CTGGTCACTGTTACCCGGAA (e[5mC]*eT*eG*eG*eT*d[5mC]*dA*d[5mC]*dT*dG*dT*dT*dA*d[5mC]*d[5mC]*e[5mC]*eG*eG*eA*eA; antisense) [ISIS 359533]” to “AGAGGAAGGAGACAACCACA (eA*eG*eA*eG*eG*dA*dA*dG*dG*dA*dG*dA*d[5mC]*dA*dA*e[5mC]*e[5mC]*eA*e[5mC]*eA; antisense) [ISIS 359521]”, the “% Inhib” value falls from 69% to 32%.

First: CCAGGAGCAGCCCAGAAGAG (e[5mC]*e[5mC]*eA*eG*eG*dA*dG*d[5mC]*dA*dG*d[5mC]*d[5mC]*d[5mC]*dA*dG*eA*eA*eG*eA*eG; antisense) [ISIS 359506]
Second: TTCAGCCACCCAGAAGGCTG (eT*eT*e[5mC]*eA*eG*d[5mC]*d[5mC]*dA*d[5mC]*d[5mC]*d[5mC]*dA*dG*dA*dA*eG*eG*e[5mC]*eT*eG; antisense) [ISIS 359546]
The “% Inhib” value of the first is higher: 58% for the first, 39% for the second.

Compared with “TCACTGTTACCCGGAAGAGG (eT*e[5mC]*eA*e[5mC]*eT*dG*dT*dT*dA*d[5mC]*d[5mC]*d[5mC]*dG*dG*dA*eA*eG*eA*eG*eG; antisense) [ISIS 359532]”, “TCTCCTCCTTCAAGGAGCCC (eT*e[5mC]*eT*e[5mC]*e[5mC]*dT*d[5mC]*d[5mC]*dT*dT*d[5mC]*dA*dA*dG*dG*eA*eG*e[5mC]*e[5mC]*e[5mC]; antisense) [ISIS 359526]” is higher in “% Inhib” value: 48% for the first, 54% for the second.

Going from “CAGGCCAACCAGGAGCAGCC (e[5mC]*eA*eG*eG*e[5mC]*d[5mC]*dA*dA*d[5mC]*d[5mC]*dA*dG*dG*dA*dG*e[5mC]*eA*eG*e[5mC]*e[5mC]; antisense) [ISIS 359508]” to “ACAGCTCCCAATACCAGGAT (eA*e[5mC]*eA*eG*e[5mC]*dT*d[5mC]*d[5mC]*d[5mC]*dA*dA*dT*dA*d[5mC]*d[5mC]*eA*eG*eG*eA*eT; antisense) [ISIS 359537]”, the “% Inhib” value rises from 68% to 93%.

First: CCAGCGTGCTGCGCCAGCTG (e[5mC]*e[5mC]*eA*eG*e[5mC]*dG*dT*dG*d[5mC]*dT*dG*d[5mC]*dG*d[5mC]*d[5mC]*eA*eG*e[5mC]*eT*eG; antisense) [ISIS 359518]
Second: TCCAGCCAGGTTCATGCTGG (eT*e[5mC]*e[5mC]*eA*eG*d[5mC]*d[5mC]*dA*dG*dG*dT*dT*d[5mC]*dA*dT*eG*e[5mC]*eT*eG*eG; antisense) [ISIS 359514]
The “% Inhib” value of the first is higher: 47% for the first, 37% for the second.

Going from “CCAGCCCTCCAGCCAGGTTC (e[5mC]*e[5mC]*eA*eG*e[5mC]*d[5mC]*d[5mC]*dT*d[5mC]*d[5mC]*dA*dG*d[5mC]*d[5mC]*dA*eG*eG*eT*eT*e[5mC]; antisense) [ISIS 359516]” to “GTCACTGGTCACTGTTACCC (eG*eT*e[5mC]*eA*e[5mC]*dT*dG*dG*dT*d[5mC]*dA*d[5mC]*dT*dG*dT*eT*eA*e[5mC]*e[5mC]*e[5mC]; antisense) [ISIS 359534]”, the “% Inhib” value rises from 69% to 75%.

First: GAACTGGCCCCAGTCAGTAC (eG*eA*eA*e[5mC]*eT*dG*dG*d[5mC]*d[5mC]*d[5mC]*d[5mC]*dA*dG*dT*d[5mC]*eA*eG*eT*eA*e[5mC]; antisense) [ISIS 359528]
Second: TCCTTCAAGGAGCCCTTCTT (eT*e[5mC]*e[5mC]*eT*eT*d[5mC]*dA*dA*dG*dG*dA*dG*d[5mC]*d[5mC]*d[5mC]*eT*eT*e[5mC]*eT*eT; antisense) [ISIS 359525]
The “% Inhib” value of the first is lower: 45% for the first, 56% for the second.

Compared with “ACCAAGTGCCAAACTGAGAT (eA*e[5mC]*e[5mC]*eA*eA*dG*dT*dG*d[5mC]*d[5mC]*dA*dA*dA*d[5mC]*dT*eG*eA*eG*eA*eT; antisense) [ISIS 359509]”, “GTGCTGCGCCAGCTGTAGCT (eG*eT*eG*e[5mC]*eT*dG*d[5mC]*dG*d[5mC]*d[5mC]*dA*dG*d[5mC]*dT*dG*eT*eA*eG*e[5mC]*eT; antisense) [ISIS 359517]” is higher in “% Inhib” value: 24% for the first, 25% for the second.

Going from “GTGCTCTCCTCCTTCAAGGA (eG*eT*eG*e[5mC]*eT*d[5mC]*dT*d[5mC]*d[5mC]*dT*d[5mC]*d[5mC]*dT*dT*d[5mC]*eA*eA*eG*eG*eA; antisense) [ISIS 359527]” to “TCTCCTGGATAAGGAAGAAC (eT*e[5mC]*eT*e[5mC]*e[5mC]*dT*dG*dG*dA*dT*dA*dA*dG*dG*dA*eA*eG*eA*eA*e[5mC]; antisense) [ISIS 359529]”, the “% Inhib” value falls from 45% to 15%.
